Reference: PubChem BioAssay (NCI)
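96-well plates; 48 h exposure; 5 concentrations. Endpoints by linear interpolation between flanking doses. Not reached: highest tested concentration assigned. At the GI50, growth is halved. At the TGI there is no net growth.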

What was measured:
Experiment in all cases: DTP human tumour cell line panel, 48 h
COLO 205 colon = tested on: COLO 205 colon
MOLT-4 leukemia = tested on: MOLT-4 leukemia
ACHN renal = tested on: ACHN renal
LOX IMVI melanoma = tested on: LOX IMVI melanoma
K-562 leukemia = tested on: K-562 leukemia
SK-MEL-2 melanoma = tested on: SK-MEL-2 melanoma
HCT-116 colon = tested on: HCT-116 colon
HT29 colon = tested on: HT29 colon
SN12C renal = tested on: SN12C renal
KM20L2 colon = tested on: KM20L2 colon
M19-MEL melanoma = tested on: M19-MEL melanoma

Row | SMILES | TGI (COLO 205 colon) | TGI (MOLT-4 leukemia) | TGI (ACHN renal) | TGI (LOX IMVI melanoma) | TGI (K-562 leukemia) | TGI (SK-MEL-2 melanoma) | GI50 (HCT-116 colon) | GI50 (COLO 205 colon) | GI50 (MOLT-4 leukemia) | GI50 (ACHN renal) | GI50 (HT29 colon) | GI50 (LOX IMVI melanoma) | GI50 (K-562 leukemia) | GI50 (SN12C renal) | TGI (SN12C renal) | GI50 (SK-MEL-2 melanoma) | TGI (HCT-116 colon) | TGI (KM20L2 colon) | TGI (HT29 colon) | TGI (M19-MEL melanoma)
1 | N=c1c2c(=S)n(-c3ccccc3)c(=S)n(-c3ccccc3)c2nc(SCCCN2CCN(c3cccc(Cl)c3)CC2)n1-c1ccccc1 | > 100 µM | > 100 µM | > 100 µM | > 100 µM | > 100 µM | > 100 µM |  |  |  |  |  |  |  |  |  |  |  |  |  | 
2 | Nc1nc(Cl)cc(OCC2(CO)CC(OCc3ccccc3)C2)n1 (configuration not stated) |  | 95.5 µM |  |  |  |  | 64 µM | 72.5 µM | 22 µM | 41.5 µM | 33.9 µM | 45.6 µM | 36.5 µM | 76.5 µM |  |  |  |  |  | 
3 | N=C(N)c1ccc(-c2ccc(-c3ccccc3)s2)cc1 |  |  | 3.03 µM |  |  | 4.1 µM |  |  |  | 1.67 µM |  |  |  | 1.72 µM | 3.41 µM | 1.97 µM |  |  |  | 
4 | CCCCCCCC/C=C\CCCCCCCC(=O)O | > 500 µM | 331 µM |  | 239 µM | 219 µM | > 281 µM |  |  |  |  |  |  |  |  | 199 µM |  | 217 µM | > 500 µM | > 500 µM | 183 µM
5 | CC(=O)Oc1ccc2c(c1)oc1c3ccc(OC(C)=O)cc3n(C)c(=O)c21 | > 100 µM | > 100 µM | > 100 µM |  | > 100 µM |  |  |  |  |  |  |  |  |  | 66 µM |  | 48.7 µM |  | > 100 µM | 
6 | O=C1C=CC2=[N+]([O-])C(c3ccccc3)(c3ccccc3)C(=Nc3ccccc3)C2=C1 |  |  | 3.36 µM | 3.74 µM | 4.34 µM | 40.7 µM |  |  |  |  |  |  |  |  | 3.96 µM |  | 3.92 µM | 5.22 µM | 5.63 µM | 3.36 µM
7 | Cc1cc(C)c2c(c1)CC1(Cc3c(C)ccc(C)c3C1=O)C2=O (configuration not stated) | > 100 µM | > 100 µM | > 100 µM |  | > 100 µM | > 100 µM |  |  |  |  |  |  |  |  | > 100 µM |  |  |  |  | 
8 | CCNc1nnc(-c2nsc3ccccc23)s1 | > 100 µM | > 100 µM | > 100 µM | > 100 µM | > 100 µM | > 100 µM |  |  |  |  |  |  |  |  | > 100 µM |  | 75.2 µM | > 100 µM | 93.3 µM | > 100 µM
9 | COC(=O)c1cccc(N[C@@H]2c3cc4c(cc3C(c3cc(OC)c(O)c(OC)c3)[C@H]3C(=O)OCC32)OCO4)c1 (some centres not stated) | 5.5 µM | 1.36 µM |  | 11.3 µM | 20.6 µM | > 63 µM |  |  |  |  |  |  |  |  |  |  | 21.9 µM | > 32.7 µM | 16 µM | > 100 µM
10 | C=C1C(=O)C[C@@]23CCC[C@@]12CC(OCOC)C3 (some centres not stated) | 14.6 µM | 9.93 µM |  | 3.87 µM | > 51.5 µM | 11.2 µM |  |  |  |  |  |  |  |  | 4.53 µM |  | 6 µM | 9.02 µM | 4.41 µM | 12.5 µM
11 | S=P1(N2CCCCC2)Oc2ccc3ccccc3c2-c2c(ccc3ccccc23)O1 | > 100 µM | > 100 µM |  | > 100 µM | > 100 µM | > 100 µM |  |  |  |  |  |  |  |  | > 100 µM |  | > 100 µM | > 100 µM | > 100 µM | > 100 µM
12 | Cc1ccc([N+](=O)[O-])cc1S(=O)(=O)Nc1ccc(C2=NNC(c3ccccc3O)C2)cc1 (configuration not stated) | 65.5 µM | 96.3 µM | 77 µM | > 100 µM | > 100 µM | 65.6 µM |  |  |  |  |  |  |  |  | 82.9 µM |  | 60.8 µM |  | > 100 µM | 
